This note sets out measurements from patent EP0908457B1, “3-(1,2-benzisothiazol- and isoxazol-5-Y1)-2,4(1H,3H)-pyrimidinedione or thione and 3-(1,2-benzisothiazol- and isoxazol-5-y1)-4(3H)-pyrimidinone or thione herbicidal agents” (BASF AKTIENGESELLSCHAFT, priority 1997, dated 1999).

The subject of data set [1] is Monochoria vaginalis, Presl. The data set can be described thus: Preemergence weed control under flooded paddy conditions, MOOVA (Monochoria). For herbicidal effect rating, MOOVA: meaning of each grade not given here. The note with it: flooded paddy; for herbicidal effect rating, MOOVA: rated three to four weeks after treatment; for MOOVA: herbicidal effect rating 0-9, three to four weeks after treatment. It is filed as in vivo.
Data set [2] has as its system Echinochloa oryzoides (Ard.) Fritsch. The data set can be described thus: Preemergence weed control under flooded paddy conditions, ECHORC (Watergrass (Calif.)). For herbicidal effect rating, ECHORC: meaning of each grade not given here. The note with it: flooded paddy; for herbicidal effect rating, ECHORC: rated three to four weeks after treatment; for ECHORC: herbicidal effect rating 0-9, three to four weeks after treatment. In kind it is in vivo.

Data set [3] deals with Oryza sativa, (L.) Tebonnet. The experiment in a line: Rice tolerance to post-transplant applications under flooded paddy conditions (Example 187), ORYSAT (Rice, Tebonnet). For herbicidal effect rating ORYSAT: meaning of each grade not given here. The following applies: for herbicidal effect rating ORYSAT / herbicidal effect rating, ORYSAT (rice tolerance): rated three to four weeks after treatment; for ORYSAT: herbicidal effect rating 0-9, three to four weeks after treatment.

The subject of a further data set is Sagittaria pygmaea, L. The data set can be described thus: Preemergence weed control under flooded paddy conditions, SAGPY (Arrowhead (Pygmaea)). For herbicidal effect rating, SAGPY: meaning of each grade not given here. The note with it: flooded paddy; for herbicidal effect rating, SAGPY: rated three to four weeks after treatment; for SAGPY: herbicidal effect rating 0-9, three to four weeks after treatment. In kind it is in vivo.
In a further data set the test system is Cyperus iria. The experiment in a line: Preemergence weed control under flooded paddy conditions, CYPIR (Rice Flatsedge). For herbicidal effect rating, CYPIR: meaning of each grade not given here. In kind it is in vivo. The note with it: flooded paddy; for herbicidal effect rating, CYPIR: rated three to four weeks after treatment; for CYPIR: herbicidal effect rating 0-9, three to four weeks after treatment.
For data set [4], the system named is Cyperus serotinus, Rottb. The experiment in a line: Preemergence weed control under flooded paddy conditions, CYPSE (Flatsedge). For herbicidal effect rating, CYPSE: meaning of each grade not given here. In kind it is in vivo. The following applies: for herbicidal effect rating, CYPSE: rated three to four weeks after treatment; for CYPSE: herbicidal effect rating 0-9, three to four weeks after treatment.
Where [5] appears, read: Rate 0.0320 kg/ha, preemergence.
Setting [6] is: Rate 0.0620 kg/ha, preemergence.
[7] abbreviates: Rate 0.1250 kg/ha, preemergence.
The mark [8] stands for this setting: Rate 0.2500 kg/ha, preemergence.
Setting [9] is: Rate 0.0320 kg/ha, preemergence weeds.
Where [10] appears, read: Rate 0.0620 kg/ha, preemergence weeds.
Setting [11] is: Rate 0.1250 kg/ha, preemergence weeds.
[12] abbreviates: Rate 0.2500 kg/ha, preemergence weeds.
Setting [13] is: 0.0320 kg/ha, preemergence weeds.
Where [14] appears, read: 0.0620 kg/ha, preemergence weeds.
Setting [15] is: 0.1250 kg/ha, preemergence weeds.
Setting [16] is: 0.2500 kg/ha, preemergence weeds.

Take `CCSCCOC(=O)c1nsc2ccc(-n3c(=O)cc(C(F)(F)F)n(C)c3=O)cc12` [Example 385, 1,2-Benzisothiazole-3-carboxylic acid, 5-[3,6-dihydro-3-methyl-2,6-dioxo-4-(trifluoromethyl)-1(2H)-pyrimidinyl]-, 2-(ethylthio)ethyl ester]: the “herbicidal effect rating, MOOVA” value in data set [1] (setting [5]), in data set [1] (setting [6]), in data set [1] (setting [7]) and in data set [1] (setting [8]) was 9.0 in each case. For the same compound, the “herbicidal effect rating, ECHORC” value in data set [2] (setting [5]) is 0.0; in data set [2] (setting [6]), 3.0; in data set [2] (setting [7]) it was 3.0; in data set [2] (setting [8]), 6.0. Moreover, the “herbicidal effect rating ORYSAT” value stood at 3.0 in data set [3] (Rate 0.0320 kg/ha), 5.0 in data set [3] (Rate 0.0620 kg/ha), 7.0 in data set [3] (Rate 0.1250 kg/ha) and 7.0 in data set [3] (Rate 0.2500 kg/ha). For the same compound, the “herbicidal effect rating, SAGPY” value with Sagittaria pygmaea, L. (setting [5]) came out at 0.0; with Sagittaria pygmaea, L. (setting [6]), 0.0; in the data set on Sagittaria pygmaea, L. (setting [7]) it was 9.0; in the data set with Sagittaria pygmaea, L. (setting [8]) it was 9.0. The “herbicidal effect rating, CYPIR” value with Cyperus iria (setting [5]) was determined as 4.0; in the data set with Cyperus iria (setting [6]), 6.0; in the data set on Cyperus iria (setting [7]), 6.0; in the data set on Cyperus iria (setting [8]), 9.0. Moreover, the “herbicidal effect rating, CYPSE” value in data set [4] (setting [5]) is 6.0; in data set [4] (setting [6]), 6.0; in data set [4] (setting [7]) it was 7.0; in data set [4] (setting [8]), 7.0.
Consider `Cn1c(C(F)(F)F)cc(=O)n(-c2ccc3snc(C(C#N)=Cc4ccco4)c3c2)c1=O` [Example 594, 1,2-Benzisothiazole-3-acetonitrile, 5-[3,6-dihydro-3-methyl-2,6-dioxo-4-(trifluoromethyl)-1(2H)-pyrimidinyl]-alpha-furfurylidene-], for which the “herbicidal effect rating, MOOVA” value in data set [1] (setting [5]) is on record as 6.0; in data set [1] (setting [6]), 7.0; in data set [1] (setting [7]) it was 9.0; in data set [1] (setting [8]), 9.0. Besides, the “herbicidal effect rating, ECHORC” value in data set [2] (setting [5]) amounted to 3.0; in data set [2] (setting [6]) it was 5.0; in data set [2] (setting [7]), 6.0; in data set [2] (setting [8]), 7.0. In addition, the “herbicidal effect rating ORYSAT” value in data set [3] (Rate 0.0320 kg/ha) stood at 1.0; in data set [3] (Rate 0.0620 kg/ha), 2.0; in data set [3] (Rate 0.1250 kg/ha) it was 2.0; in data set [3] (Rate 0.2500 kg/ha), 3.0. Moreover, the “herbicidal effect rating, SAGPY” value in the data set with Sagittaria pygmaea, L. (setting [5]) was determined as 2.0; in the data set on Sagittaria pygmaea, L. (setting [6]), 4.0; in the data set on Sagittaria pygmaea, L. (setting [7]), 5.0. The “herbicidal effect rating, CYPIR” value with Cyperus iria (setting [5]) was 3.0; in the data set on Cyperus iria (setting [6]), 5.0; with Cyperus iria (setting [7]), 5.0; in the data set on Cyperus iria (setting [8]), 9.0. Besides, the “herbicidal effect rating, CYPSE” value in data set [4] (setting [5]) worked out at 0.0.
`Cn1c(C(F)(F)F)cc(=O)n(-c2ccc3snc(C(=O)NS(=O)(=O)CCl)c3c2)c1=O` [Example 324, 1,2-Benzisothiazole-3-carboxamide, N-[(chloromethyl)sulfonyl]-5-[3,6-dihydro-3-methyl-2,6-dioxo-4-(trifluoromethyl)-1(2H)-pyrimidinyl]-]: the “herbicidal effect rating, MOOVA” value in data set [1] (setting [9]), in data set [1] (setting [10]), in data set [1] (setting [11]) and in data set [1] (setting [12]) was 9.0 throughout. Moreover, the “herbicidal effect rating, ECHORC” value in data set [2] (setting [9]) is 0.0; in data set [2] (setting [10]), 4.0; in data set [2] (setting [11]), 5.0; in data set [2] (setting [12]), 6.0. Further, the “herbicidal effect rating ORYSAT” value in data set [3] (Rate 0.0320 kg/ha) is listed as 3.0; in data set [3] (Rate 0.0620 kg/ha), 4.0; in data set [3] (Rate 0.1250 kg/ha), 7.0; in data set [3] (Rate 0.2500 kg/ha) it was 9.0. For the same compound, the “herbicidal effect rating, SAGPY” value is 0.0 in the data set on Sagittaria pygmaea, L. (setting [9]); 3.0 in the data set with Sagittaria pygmaea, L. (setting [10]); 9.0 in the data set on Sagittaria pygmaea, L. (setting [11]); 9.0 with Sagittaria pygmaea, L. (setting [12]). Further, the “herbicidal effect rating, CYPIR” value with Cyperus iria (setting [9]), with Cyperus iria (setting [10]), in the data set on Cyperus iria (setting [11]) and in the data set with Cyperus iria (setting [12]) was 9.0 throughout. Further, the “herbicidal effect rating, CYPSE” value in data set [4] (setting [9]) came out at 0.0; in data set [4] (setting [10]), 0.0; in data set [4] (setting [11]) it was 3.0; in data set [4] (setting [12]), 7.0.
For `Cc1ccc(OC(C)C)c(-c2nsc3ccc(-n4c(=O)cc(C(F)(F)F)n(C)c4=O)cc23)c1` [Example 59, 3-[3-(6-Isopropoxy-m-tolyl)-1,2-benzisothiazol-5-yl]-1-methyl-6-(trifluoromethyl)-2,4(1H,3H)-pyrimidinedione], the “herbicidal effect rating, MOOVA” value was 9.0 in data set [1] (0.0313 kg/ha, preemergence); 9.0 in data set [1] (0.0625 kg/ha, preemergence); 9.0 in data set [1] (0.1250 kg/ha, preemergence); 9.0 in data set [1] (0.2500 kg/ha, preemergence). Further, the “herbicidal effect rating, ECHORC” value in data set [2] (0.0313 kg/ha, preemergence) is 9.0; in data set [2] (0.0625 kg/ha, preemergence) it was 9.0; in data set [2] (0.1250 kg/ha, preemergence), 9.0; in data set [2] (0.2500 kg/ha, preemergence), 9.0. Moreover, the “herbicidal effect rating, ORYSAT (rice tolerance)” value in data set [3] (0.0313 kg/ha) is 2.0; in data set [3] (0.0625 kg/ha) it was 3.0; in data set [3] (0.1250 kg/ha), 4.0; in data set [3] (0.2500 kg/ha), 4.0. Moreover, the “herbicidal effect rating, SAGPY” value worked out at 0.0 in the data set on Sagittaria pygmaea, L. (0.0313 kg/ha, preemergence); 0.0 with Sagittaria pygmaea, L. (0.0625 kg/ha, preemergence); 0.0 in the data set on Sagittaria pygmaea, L. (0.1250 kg/ha, preemergence); 0.0 with Sagittaria pygmaea, L. (0.2500 kg/ha, preemergence). For the same compound, the “herbicidal effect rating, CYPIR” value in the data set with Cyperus iria (0.0313 kg/ha, preemergence) turned out to be 7.0; in the data set with Cyperus iria (0.0625 kg/ha, preemergence), 7.0; in the data set on Cyperus iria (0.1250 kg/ha, preemergence), 8.0; in the data set on Cyperus iria (0.2500 kg/ha, preemergence), 9.0. For the same compound, the “herbicidal effect rating, CYPSE” value in data set [4] (0.0313 kg/ha, preemergence) was 0.0; in data set [4] (0.0625 kg/ha, preemergence), 0.0; in data set [4] (0.1250 kg/ha, preemergence), 0.0; in data set [4] (0.2500 kg/ha, preemergence), 0.0.
Consider `CCC(C#N)c1nsc2ccc(-n3c(=O)cc(C(F)(F)F)n(C)c3=O)cc12` (stereo not drawn) [Example 444, 1,2-Benzisothiazole-3-acetonitrile, 5-[3,6-dihydro-3-methyl-2,6-dioxo-4-(trifluoromethyl)-1(2H)-pyrimidinyl]-alpha-ethyl-], for which the MOOVA in data set [1] (setting [13]) turned out to be 8.0; in data set [1] (setting [14]), 9.0; in data set [1] (setting [15]) it was 9.0; in data set [1] (setting [16]), 9.0. Besides, the ECHORC in data set [2] (setting [13]) was determined as 3.5; in data set [2] (setting [14]) it was 6.0; in data set [2] (setting [15]), 8.5; in data set [2] (setting [16]), 9.0. Further, the ORYSAT in data set [3] (0.0320 kg/ha) worked out at 4.5; in data set [3] (0.0620 kg/ha) it was 6.5; in data set [3] (0.1250 kg/ha), 9.0; in data set [3] (0.2500 kg/ha), 8.5. The SAGPY amounted to 4.5 in the data set on Sagittaria pygmaea, L. (setting [13]); 6.0 with Sagittaria pygmaea, L. (setting [14]); 7.0 in the data set on Sagittaria pygmaea, L. (setting [15]); 9.0 in the data set on Sagittaria pygmaea, L. (setting [16]). For the same compound, the CYPIR was determined as 7.5 in the data set on Cyperus iria (setting [13]), 8.0 with Cyperus iria (setting [14]), 9.0 in the data set with Cyperus iria (setting [15]) and 9.0 in the data set with Cyperus iria (setting [16]). The CYPSE in data set [4] (setting [13]) is 3.5; in data set [4] (setting [14]), 9.0; in data set [4] (setting [15]), 9.0; in data set [4] (setting [16]), 9.0.
